# Results published in patent US20180221352A1, “3-(1H-PYRROLO[2,3-C]PYRIDIN-2-YL)-1H-PYRAZOLO[3,4-B]PYRIDINES AND THERAPEUTIC USES THEREOF” (Samumed, LLC, priority 2015, published 2018).
# Assays:
# Type in all cases: cell-based
# [1] = test system: Wnt activity (Sp5-Luc reporter, SW480 colon carcinoma cells); test: Wnt activity screening assay, Sp5-Luc reporter gene in SW480 cells; settings: Homo sapiens; for EC50: Sp5-Luc reporter, SW480 cells, overnight incubation; for inhibition at 10 µM: SW480, read-out: percent inhibition at 10 μM
# Procedure, shortened: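 SW480 cells stably carrying a luciferase reporter driven by an Sp5 promoter with eight TCF/LEF sites, plated overnight in 1% FBS medium at 37 °C. Luminescence read with BrightGlo. Signals normalized to DMSO-treated cells; EC50 from four-parameter variable-slope fit.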
# SW480 colon cancer cells = test: Cell viability assay (CellTiter-Blue); settings: Homo sapiens; for EC50: 96 h, SW480 cell viability, four days; for inhibition at 10 µM: SW480, 96 h, read-out: percent inhibition at 10 μM
# Procedure, shortened: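 Fluorescence from resazurin reduced to resorufin by metabolically active cells was the read-out, taken after ~3 h with CellTiter-Blue.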
# [2] = test system: primary human fibroblasts derived from IPF patients (LL29 cells); test: Inhibition of fibrotic process, αSMA staining in TGF-β1 treated fibroblasts; settings: Fibroblast; for EC50: 96 h, LL29 cells, TGF-β1 20 ng/mL, 4 days, % αSMA positive cells; for inhibition at 10 µM: read-out: percent inhibition at 10 μM
# Procedure, shortened: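 LL29 fibroblasts plated in F12 with 1% FBS were stimulated with TGF-β1 alongside compound, with TGF-β1 plus DMSO wells as controls. After 4 days of incubation, SYTOX green was added at 1 μM final for 30 min at room temperature.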
# [3] = test system: primary human mesenchymal stem cells (hMSCs); test: Induction of chondrogenesis in hMSCs (nodule count); settings: 6 days; for EC50: concentration required to induce 50% levels of chondrogenesis vs TGF-β3, read-out: Conc (nM) of 50% TGF-β3 activity; for Emax: relative to TGF-β3 (10 ng/mL) positive control, read-out: Max. Activity as % TGF-β3 activity
# Excerpt: Representative compounds were screened using primary human mesenchymal stem cells (hMSCs) to determine their ability to induce chondrogenesis (process by which cartilage is developed).
# Primary human mesenchymal stem cells (hMSCs) were purchased from Lonza (Walkersville, Md.) and expanded in Mesenchymal Stem Cell Growth Media (Lonza). Cells between passage 3 and 6 were used for the experiments.
# To image chondrogenic nodules, the cells were fixed using 4% formaldehyde (Electron Microscopy Sciences), and stained with 2 μg/mL Rhodamine B (Sigma-Aldrich) and 20 μM Nile Red (Sigma-Aldrich) [Johnson K., et. al, A Stem Cell-Based Approach to Cartilage Repair, Science, (2012). […] Number of nodules in each well was normalized to the average of 3 DMSO treated wells on the same plate using Excel (Microsoft Inc.). The normalized averages (fold change over DMSO) of 3 replicate wells for each compound concentration were calculated. Due to solubility limitations of some of the compounds, curve fitting was incomplete leading to inaccurate EC50 determinations.
# Using TGF-β3 as a positive control, the concentration of representative compounds required to induce 50% levels of chondrogenesis is reported. In addition, the maximum activity of each compound and the respective dose that each compound reached maximum chondrogenesis activity is reported.
# IL-6 = IL-6 inhibition in LPS-stimulated THP-1 cells (HTRF); settings: Homo sapiens; for inhibition at 10 µM: THP-1, read-out: percent inhibition at 10 μM; for EC50: THP-1 cells, LPS 500 ng/mL, 22 hours, IL6 HTRF
# Procedure, shortened: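 Serum-reduced (1% FBS, 24 h) THP-1 cells, 5000/well, exposed to compound 2 h at 37 °C, then stimulated with 500 ng/mL LPS for 22 h. Secreted IL-6 measured by HTRF (665/620 ratio), normalised to DMSO; EC50 by four-parameter fit, duplicates.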
SMILES,EC50 [1] [µM],EC50 (SW480 colon cancer cells) [µM],EC50 [2] [µM],EC50 [3] [nM],Emax [3] [%],inhibition at 10 µM (IL-6) [%],EC50 (IL-6) [µM],inhibition at 10 µM [1] [%],inhibition at 10 µM (SW480 colon cancer cells) [%],inhibition at 10 µM [2] [%]
"O=C(Nc1cncc(-c2cnc3[nH]nc(-c4cc5c(-c6ccccc6F)cncc5[nH]4)c3c2)c1)C1CC1 [Compound 76, N-(5-(3-(4-(2-Fluorophenyl)-1H-pyrrolo[2,3-c]pyridin-2-yl)-1H-pyrazolo [3,4-b]pyridin-5-yl)pyridin-3-yl)cyclopropanecarboxamide]",0.39,0.292,0.11,10,52,22,> 10,–,–,–
"CN(C)c1cncc(-c2cnc3[nH]nc(-c4cc5c(-c6ccncc6)cncc5[nH]4)c3c2)c1 [Compound 119, N,N-Dimethyl-5-(3-(4-(pyridin-4-yl)-1H-pyrrolo[2,3-c]pyridin-2-yl)-1H-pyrazolo[3,4-b]pyridin-5-yl)pyridin-3-amine]",> 10,> 10,> 10,10,191,40.7,> 10,2.5,8.9,0
"CCNCc1cncc(-c2cnc3[nH]nc(-c4cc5c(-c6cc(F)cc(CNS(C)(=O)=O)c6)cncc5[nH]4)c3c2)c1 [Compound 482, N-(3-(2-(5-(5-((Ethylamino)methyl)pyridin-3-yl)-1H-pyrazolo[3,4-b]pyridin-3-yl)-1H-pyrrolo[2,3-c]pyridin-4-yl)-5-fluorobenzyl)methanesulfonamide]",> 10,> 10,5.03,–,43,47.9,> 10,12.8,7,–
"O=C(Nc1cncc(-c2cnc3[nH]nc(-c4cc5c(-c6cccnc6)cncc5[nH]4)c3c2)c1)c1ccccc1 [Compound 95, N-(5-(3-(4-(Pyridin-3-yl)-1H-pyrrolo[2,3-c]pyridin-2-yl)-1H-pyrazolo[3,4-b]pyridin-5-yl)pyridin-3-yl)benzamide]",> 10,> 10,> 10,100,155,46.5,> 10,0,8.7,0
"c1cc2cc(-c3n[nH]c4ncc(-c5cncc(CN6CCCC6)c5)cc34)[nH]c2cn1 [Compound 266, 5-(5-(Pyrrolidin-1-ylmethyl)pyridin-3-yl)-3-(1H-pyrrolo[2,3-c]pyridin-2-yl)-1H-pyrazolo[3,4-b]pyridine]",4.88,3.69,> 10,–,36,47.6,> 10,–,–,12.9
"CC(C)(C)C(=O)Nc1cncc(-c2cnc3[nH]nc(-c4cc5c(-c6ccncc6)cncc5[nH]4)c3c2)c1 [Compound 120, N-(5-(3-(4-(Pyridin-4-yl)-1H-pyrrolo[2,3-c]pyridin-2-yl)-1H-pyrazolo[3,4-b]pyridin-5-yl)pyridin-3-yl)pivalamide]",> 10,> 10,2.72,–,34,–,0.196,5,13.5,–
"CN(C)Cc1cncc(-c2cnc3[nH]nc(-c4cc5c(-c6ccccc6F)cncc5[nH]4)c3c2)c1 [Compound 69, 1-(5-(3-(4-(2-Fluorophenyl)-1H-pyrrolo[2,3-c]pyridin-2-yl)-1H-pyrazolo [3,4-b]pyridin-5-yl)pyridin-3-yl)-N,N-dimethylmethanamine]",2.49,1.05,1.89,30,61,–,0.131,–,–,–
"CC(C)C(=O)Nc1cncc(-c2cnc3[nH]nc(-c4cc5c(-c6ccccc6F)cncc5[nH]4)c3c2)c1 [Compound 65, N-(5-(3-(4-(2-Fluorophenyl)-1H-pyrrolo[2,3-c]pyridin-2-yl)-1H-pyrazolo [3,4-b]pyridin-5-yl)pyridin-3-yl)isobutyramide]",2.09,2.86,2.39,–,45,–,1.44,–,–,–
